Results on three compounds are retold here after patent EP4629837B1, “ANIMAL FEED COMPOSITION HAVING A COMBINATION OF FENUGREEK AND NEOHESPERIDIN DIHYDROCHALCONE (NHDC) TO IMPROVE PERFORMANCE OF ANIMALS OR STIMULATE THEIR SWEET TASTE RECEPTORS” (ADM International Sàrl, priority 2022, dated 2024).

Structures are written as SMILES. Where a SMILES comes first, the peptide text is derived from it.

In experiment [1] the target is T1, pig sweet taste receptors (Sus scrofa, UniProt I1ZBR6+Q0EF93). Kind of experiment: Activation of heterologously expressed pig sweet taste receptors in HEK293T-PEAK rapid Gα15 cells (Fluo-4 AM Ca2+ fluorescence, dose-response). Format: cell-based. The settings on record: single compounds and 1:4 combination, heterologous system of Example 1. How it is done:
For the production of pig sweet taste receptor constructs, full length coding sequences of pig taste receptors T1R2 and T1R3 of pigs were synthesized and ligated into modified expression vectors pcDNA3/TO and pcDNA5/FRT/PM for evaluation. Amino-terminal sst-tags were added to facilitate cell membrane targeting, cytomegalovirus (CMV) promoters were added to control gene expression, and carboxylterminal FLAG or HSV tags were added to enable immunological detection of receptor subunits 1,2. […]
Functional expression of sweet taste receptors. The pig sweet taste receptor function was analyzed by transfecting the HEK293T-PEAK rapid Gα15 cells with taste receptor constructs described herein. […]
The transfected cells were analyzed with each of the sweeteners/compounds individually using a wide range of concentrations. The ligand binding and subsequent activation of the taste receptor causes an influx of Ca^2+ ions into the cell, which can be measured as an increase in fluorescent signaling using a microplate reader as shown in Figure 2.
The dose-response curves are calculated by using mean fluorescence values of multiple wells receiving the same concentration of sweetener/compound, and subtracting fluorescence changes of corresponding cells transfected with empty vector (ΔF). Signals are normalized to background fluorescence (ΔF/F). […]

In experiment [2] the target is T1, pig sweet taste receptors. The settings on record: Daly et al.; cited from earlier work.
The next experiment relates to pig intestine. The settings on record: Daly et al.; cited from earlier work.

T1 sequence (I1ZBR6 entry or part of it): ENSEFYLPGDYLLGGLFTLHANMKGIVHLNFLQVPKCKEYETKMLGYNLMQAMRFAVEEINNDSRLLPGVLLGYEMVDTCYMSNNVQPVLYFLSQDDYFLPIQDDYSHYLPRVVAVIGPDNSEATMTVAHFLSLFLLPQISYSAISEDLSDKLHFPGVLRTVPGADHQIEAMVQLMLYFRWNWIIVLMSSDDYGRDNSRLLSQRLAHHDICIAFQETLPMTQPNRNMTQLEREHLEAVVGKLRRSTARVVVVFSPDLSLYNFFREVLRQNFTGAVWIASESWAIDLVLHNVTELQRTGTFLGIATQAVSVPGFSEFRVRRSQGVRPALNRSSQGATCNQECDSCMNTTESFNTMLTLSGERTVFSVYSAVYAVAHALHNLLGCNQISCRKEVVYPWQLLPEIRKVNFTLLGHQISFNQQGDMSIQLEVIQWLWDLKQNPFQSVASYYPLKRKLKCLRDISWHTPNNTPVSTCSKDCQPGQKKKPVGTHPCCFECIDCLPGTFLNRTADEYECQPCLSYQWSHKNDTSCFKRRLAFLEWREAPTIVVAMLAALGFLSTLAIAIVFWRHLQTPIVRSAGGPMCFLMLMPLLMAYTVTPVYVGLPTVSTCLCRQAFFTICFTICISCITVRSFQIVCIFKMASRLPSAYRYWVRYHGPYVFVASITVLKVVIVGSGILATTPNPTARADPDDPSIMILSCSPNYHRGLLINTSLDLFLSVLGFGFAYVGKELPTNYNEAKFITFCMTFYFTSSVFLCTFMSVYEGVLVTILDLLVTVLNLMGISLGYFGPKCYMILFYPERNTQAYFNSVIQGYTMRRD
T1 sequence (Q0EF93 entry or part of it): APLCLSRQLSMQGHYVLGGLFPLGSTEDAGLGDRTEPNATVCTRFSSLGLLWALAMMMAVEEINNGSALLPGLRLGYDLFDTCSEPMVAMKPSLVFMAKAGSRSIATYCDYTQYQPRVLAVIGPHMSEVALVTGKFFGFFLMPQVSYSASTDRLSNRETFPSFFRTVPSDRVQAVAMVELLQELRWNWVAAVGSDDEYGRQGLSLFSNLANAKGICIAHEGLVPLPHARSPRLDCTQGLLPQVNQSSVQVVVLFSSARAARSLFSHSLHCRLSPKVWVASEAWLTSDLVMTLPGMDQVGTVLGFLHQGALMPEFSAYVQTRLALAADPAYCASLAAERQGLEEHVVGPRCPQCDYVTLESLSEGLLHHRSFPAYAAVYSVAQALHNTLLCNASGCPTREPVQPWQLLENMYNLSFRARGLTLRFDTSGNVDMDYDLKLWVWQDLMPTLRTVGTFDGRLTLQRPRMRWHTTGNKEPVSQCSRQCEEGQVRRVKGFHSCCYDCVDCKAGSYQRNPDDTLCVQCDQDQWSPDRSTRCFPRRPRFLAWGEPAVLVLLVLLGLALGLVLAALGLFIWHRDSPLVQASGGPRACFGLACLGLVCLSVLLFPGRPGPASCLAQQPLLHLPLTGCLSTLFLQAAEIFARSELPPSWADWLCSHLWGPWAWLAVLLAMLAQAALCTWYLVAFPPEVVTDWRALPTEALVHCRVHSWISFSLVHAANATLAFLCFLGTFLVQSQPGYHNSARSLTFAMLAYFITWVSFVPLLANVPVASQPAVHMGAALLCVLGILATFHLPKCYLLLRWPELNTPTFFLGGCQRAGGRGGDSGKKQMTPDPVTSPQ

Take `COc1ccc(CCC(=O)c2c(O)cc(O[C@@H]3O[C@H](CO)[C@@H](O)[C@H](O)[C@H]3O[C@@H]3O[C@@H](C)[C@H](O)[C@@H](O)[C@H]3O)cc2O)cc1O` [NHDC # 020D066, 1-(4-((2-O-[6-Deoxy-α-L-mannopyranosyl]-β-D-glucopyranosyl)oxy)-2,6-dihydroxyphenyl)-3-[3-hydroxy-4-methoxyphenyl]-1-poranone]: the “In vitro EC50 (mg/ml) for pig sweet taste receptors” value in experiment [1] stood at 0.62 mg/mL.
The same measure, in the same setting: the result for `C=C1C[C@@]23CC[C@H]4[C@@](C)(CCC[C@@]4(C)C(=O)O[C@@H]4O[C@H](CO)[C@@H](O)[C@H](O)[C@H]4O)[C@@H]2CC[C@]1(O[C@@H]1O[C@H](CO)[C@@H](O)[C@H](O[C@@H]2O[C@H](CO)[C@@H](O)[C@H](O)[C@H]2O)[C@H]1O[C@@H]1O[C@H](CO)[C@@H](O)[C@H](O)[C@H]1O)C3` [Rebaudioside A] reads 0.76 mg/mL.
For `COC(=O)[C@H](Cc1ccccc1)NC(=O)[C@@H](N)CC(=O)O` [aspartame] (H-Asp-Phe-OMe), the “activation of pig sweet taste receptors in vitro” value in experiment [2] is on record as “do not activate pig sweet taste receptors in vitro”. Moreover, in the experiment on pig intestine, the “glucose uptake in the pig intestine” value was “do not induce higher glucose uptake in the pig intestine”.
